In patent US20070048377A1, “Drug compositions containing controlled release hypromellose matrices” (priority 2005, published 2007):
Counter-ions that a name gives are not always drawn.

Tests used:
[1] = Verapamil Hydrochloride and PVAP chemical interaction (precipitate on combining saturated methanol solutions); type: physicochemical; conditions: 50 grams of each combined
From the text: To determine that the influence on the drug release is not due to the chemical interaction between Verapamil HCL and PVAP, following investigation was made.
• a. Purpose—To determine if change in drug release is due to polymer drug interaction, where increasing PVAP would potentially cause decreased drug release due to binding with the drug. • b. Method— • i. Dissolved 20 grams of Verapamil Hydrochloride in 52 grams of methanol to form a saturated solution. • ii. Dissolved 10 grams of PVAP in 52 grams of methanol to form a saturated solution. • iii. A clear solution was obtained for each sample. • iv. 50 grams of each solution was combined and examined for the presence of a precipitate. • v. […] Conclusion • A lack of chemical interaction has been shown between PVAP and the drug which is contra to some of previously published studies on the interactions of Verapamil HCl with enteric polymers. It also rules out that the reduction of drug release by using PVAP is due to a chemical interaction with Verapamil HCl.

[2] = Viscosity investigation (Brookfield viscometer DV-II+); type: physicochemical
From the text: • a. Dispersion Characterization • PVAP, HPMC, or Verapamil HCl was dispersed in 0.1N HCl or phosphate buffer, pH 6.8. Viscosity was characterized neat and in binary or tertiary mixtures. • b. Dry Blending Mixtures Characterization • i.

Compound: COc1ccc(CCN(C)CCCC(C#N)(c2ccc(OC)c(OC)c2)C(C)C)cc1OC (stereo not drawn) [Verapamil HCl - 48% solution, Verapamil Hydrochloride]
- presence of a precipitate (chemical interaction with PVAP) [1]: no precipitate formed
- Viscosity ([2]; 0.1N HCl): 50.8 cP
- Viscosity ([2]; Phosphate Buffer, pH 6.8): 12.4 cP
